Source: patent US8987250B2 (Gilead Sciences, Inc., priority 2012, dated 2015)
Like-named read-outs stand apart in the source and are kept apart here.

Key:
[1] = tested on: HIV-IIIb; test: Test A: Antiviral Assay in MT4 Cells; type: cell-based; details: MT-4 cells infected with HIV-IIIb, 5 days of incubation, CellTiter-Glo, read-out: EC50
How it was run: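 Read-out: CellTiter-Glo chemiluminescence after 5-day incubation at 37 °C. Compounds tested as 3-fold serial dilutions (10 concentrations, quadruplicate) in RPMI 1640 with 10% FBS, on MT-4 cells pre-infected at 37 °C with HIV-IIIb at 0.004 m.o.i.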

[2] = tested on: human liver microsomes; test: Test B: Metabolic Stability Assay with Human Liver Microsomes; type: in vitro ADME; details: 1 uM compound, 1 mg/mL human liver microsomal proteins, 37° C., 0-60 minutes; half-life class
Excerpt: Test B: Metabolic Stability Assay with Human Liver Microsomes
Effective viral suppression in the HIV infected patient requires that the antiviral drug persists in the patient's body at concentrations exceeding the minimum concentration required to inhibit viral proliferation. One of the factors controlling the drug levels after dosing is metabolic conversion. The liver is one site of drug metabolism. Approximately 60% of marketed drugs are cleared by hepatic metabolism (McGinnity D F et al. (2004) Drug Metab Dispos 32; 1247-1253). Liver microsomes are subcellular fractions which contain membrane bound drug metabolising enzymes. Human liver microsomes provide a convenient and concentrated source of the key liver metabolic enzymes (e.g., cytochromes P450, UDP-glucuronosyltransferases, and many others) and can be used to predict the metabolic stability of drug candidates (e.g., agents).
Cluster tubes containing 500 uL of 1 uM compound with 1 mg/mL human liver microsomal proteins (BD Biosciences, BD452117)/50 mM K-phosphate buffer pH7.4/NADPH regenerating system/and UDP-glucuronosyltransferase cofactors, were incubated on the Precision-2000 workstation at 37° C. for 0, 10, 25, 60 minutes. The reactions were quenched with 100 uL of 0.2% formic acid in 90% ACN; containing 50 nM of an internal standard. The samples were analyzed on LC/MS/MS instrument (Q-Trap). Metabolic stabilities in microsomal fractions and hepatocytes were determined by measuring the rate of disappearance of the compound. Data (% of parent remaining) were plotted on a semi logarithmic scale and fitted using an exponential fit.

[3] = Human immunodeficiency virus 1, IIIB, MT4, 120 h, Table 2
[4] = Human immunodeficiency virus 1, IIIB, MT4, 120 h, Table 1

EC50 ([1]; Table 1)	SMILES	EC50 [1, 3]	Human Microsomal stability [2]	EC50 [1, 4]
–	Cc1cc2nc(-c3ccnc(-n4ccc5cnccc5c4=O)c3)sc2c(-c2ccc(Cl)cc2)c1[C@H](OC(C)(C)C)C(=O)O [Compound 186, (S)-2-tert-butoxy-2-(7-(4-chlorophenyl)-5-methyl-2-(2-(1-oxo-2,6-naphthyridin-2(1H)-yl)pyridin-4-yl)benzo[d]thiazol-6-yl)acetic acid]	0.004 µM	C (a human microsomal stability half-life of less than 150 minutes)	–
–	Cc1cc2nc(-c3ccc4c(N(C)C)nn(C)c4c3)sc2c(-c2ccc(Cl)cc2)c1[C@H](OC(C)(C)C)C(=O)O [Compound 206, (S)-2-tert-butoxy-2-(7-(4-chlorophenyl)-2-(3-(dimethylamino)-1-methyl-1H-indazol-6-yl)-5-methylbenzo[d]thiazol-6-yl)acetic acid]	0.024 µM	C (a human microsomal stability half-life of less than 150 minutes)	–
–	Cc1cc2nc(N3CCN(C)C(c4ccc5c(cnn5C)c4)C3)sc2c(-c2ccc(Cl)cc2)c1[C@H](OC(C)(C)C)C(=O)O (stereo partly drawn) [Compound 278, (2S)-2-tert-butoxy-2-(7-(4-chlorophenyl)-5-methyl-2-(4-methyl-3-(1-methyl-1H-indazol-5-yl)piperazin-1-yl)benzo[d]thiazol-6-yl)acetic acid]	0.004 µM	B (a human microsomal stability half-life of less than 300 minutes but greater than or equal to 150 minutes)	–
–	Cc1cc2nc(-c3ccnc(-c4ccc5c(cnn5C)c4)c3)sc2c(-c2ccc(Cl)cc2)c1[C@H](OC(C)(C)C)C(=O)O [Compound 113a, (S)-2-tert-butoxy-2-(7-(4-chlorophenyl)-5-methyl-2-(2-(1-methyl-1H-indazol-5-yl)pyridin-4-yl)benzo[d]thiazol-6-yl)acetic acid]	–	A (a human microsomal stability half-life of greater than or equal to 300 minutes)	0.016 µM
0.018 µM	Cc1cc2nc(-c3cccc(-c4ccc5c(cnn5C)c4)c3)sc2c(-c2ccc3c4c(ccnc24)CCO3)c1[C@H](OC(C)(C)C)C(=O)O (atropisomer, axis not shown) [Compound 163]	–	C (a human microsomal stability half-life of less than 150 minutes)	–
–	Cc1cc2nc(-c3cccc(-c4ccc5c(cnn5C)c4)c3)sc2c(-c2ccc(Cl)cc2)c1[C@H](OC(C)(C)C)C(=O)O [Compound 109, (S)-2-tert-butoxy-2-(7-(4-chlorophenyl)-5-methyl-2-(3-(1-methyl-1H-indazol-5-yl)phenyl)benzo[d]thiazol-6-yl)acetic acid]	–	B (a human microsomal stability half-life of less than 300 minutes but greater than or equal to 150 minutes)	0.082 µM
–	Cc1cc2nc(-c3cccc(-c4cnn(C)c4)c3)sc2c(-c2ccc(Cl)cc2)c1[C@H](OC(C)(C)C)C(=O)O [Compound 158]	–	C (a human microsomal stability half-life of less than 150 minutes)	0.017 µM
–	Cc1cc2nc(-c3cccc(-c4ccnc(Cl)c4)c3)sc2c(-c2ccc(Cl)cc2)c1[C@H](OC(C)(C)C)C(=O)O [Compound 107, (S)-2-tert-butoxy-2-(7-(4-chlorophenyl)-2-(3-(2-chloropyridin-4-yl)phenyl)-5-methylbenzo[d]thiazol-6-yl)acetic acid]	–	C (a human microsomal stability half-life of less than 150 minutes)	0.046 µM
–	Cc1cc2nc(-c3ccnc(N4CC(N(C)C)C4)n3)sc2c(-c2ccc(Cl)cc2)c1[C@H](OC(C)(C)C)C(=O)O [Compound 333, (S)-2-tert-butoxy-2-(7-(4-chlorophenyl)-2-(2-(3-(dimethylamino)azetidin-1-yl)pyrimidin-4-yl)-5-methylbenzo[d]thiazol-6-yl)acetic acid]	0.003 µM	A (a human microsomal stability half-life of greater than or equal to 300 minutes)	–
–	Cc1cc2nc(-c3cccc(-c4cnn(C(C)(C)C)c4)c3)sc2c(-c2ccc(Cl)cc2)c1[C@H](OC(C)(C)C)C(=O)O [Compound 141]	–	B (a human microsomal stability half-life of less than 300 minutes but greater than or equal to 150 minutes)	0.077 µM
